Results taken from patent US11717508B2, “Compounds, compositions, and methods for inhibiting bacterial growth” (priority 2016, dated 2023).

Test system: DosRST regulon
Format: cell-based
[1] = Rv0569, WT Mtb treated with HC102A compared to DMSO
[2] = Rv0570 nrdZ, WT Mtb treated with HC102A compared to DMSO
[3] = Rv0571c, WT Mtb treated with HC102A compared to DMSO
[4] = Rv0572c, WT Mtb treated with HC102A compared to DMSO
[5] = Rv0573c, WT Mtb treated with HC102A compared to DMSO
[6] = Rv0574c, WT Mtb treated with HC102A compared to DMSO
[7] = Rv1733c, WT Mtb treated with HC102A compared to DMSO
[8] = Rv1735c, WT Mtb treated with HC102A compared to DMSO
[9] = Rv1736c narX, WT Mtb treated with HC102A compared to DMSO
[10] = Rv1737c narK2, WT Mtb treated with HC102A compared to DMSO
[11] = Rv1738, WT Mtb treated with HC102A compared to DMSO
[12] = Rv1790 PPE, WT Mtb treated with HC102A compared to DMSO
[13] = Rv1812c, WT Mtb treated with HC102A compared to DMSO
[14] = Rv1813c, WT Mtb treated with HC102A compared to DMSO

## C[C@@H]1CC(C)(C)C[C@]2(C1)NC(=O)NC2=O (racemic) [HC102A, 7,7,9-trimethyl-1,3-diazaspiro[4.5]decane-2,4-dione]
40 μM, 6 days, >2-fold, p<0.05
  genes downregulated by compound (total): 55 genes
CDC1551, 40 μM, 6 days
  downregulation of tgs1 gene (transcriptional profiling): ~20 fold
[1]
  Fold change, gene MT0595: 0.1089
  log2 Fold change, gene MT0595: −3.199
Rv0569, WT Mtb treated with HC102A, replicate 1
  Counts per million (CPM) WT_HC102A1, gene MT0595: 21.38 CPM
Rv0569, WT Mtb treated with HC102A, replicate 2
  Counts per million (CPM) WT_HC102A2, gene MT0595: 25.92 CPM
[2]
  Fold change, gene MT0596: 0.04533
  log2 Fold change, gene MT0596: −4.464
Rv0570 nrdZ, WT Mtb treated with HC102A, replicate 1
  Counts per million (CPM) WT_HC102A1, gene MT0596: 102.7 CPM
Rv0570 nrdZ, WT Mtb treated with HC102A, replicate 2
  Counts per million (CPM) WT_HC102A2, gene MT0596: 94.1 CPM
[3]
  Fold change, gene MT0597: 0.2805
  log2 Fold change, gene MT0597: −1.834
Rv0571c, WT Mtb treated with HC102A, replicate 1
  Counts per million (CPM) WT_HC102A1, gene MT0597: 94.1998 CPM
Rv0571c, WT Mtb treated with HC102A, replicate 2
  Counts per million (CPM) WT_HC102A2, gene MT0597: 81.32 CPM
[4]
  Fold change, gene MT0599: 0.2441
  log2 Fold change, gene MT0599: −2.034
Rv0572c, WT Mtb treated with HC102A, replicate 1
  Counts per million (CPM) WT_HC102A1, gene MT0599: 127.4 CPM
Rv0572c, WT Mtb treated with HC102A, replicate 2
  Counts per million (CPM) WT_HC102A2, gene MT0599: 180.6 CPM
[5]
  Fold change, gene MT0601: 0.1932
  log2 Fold change, gene MT0601: −2.372
Rv0573c, WT Mtb treated with HC102A, replicate 1
  Counts per million (CPM) WT_HC102A1, gene MT0601: 13.82 CPM
Rv0573c, WT Mtb treated with HC102A, replicate 2
  Counts per million (CPM) WT_HC102A2, gene MT0601: 19.29 CPM
[6]
  Fold change, gene MT0602: 0.1416
  log2 Fold change, gene MT0602: −2.82
Rv0574c, WT Mtb treated with HC102A, replicate 1
  Counts per million (CPM) WT_HC102A1, gene MT0602: 45.11 CPM
Rv0574c, WT Mtb treated with HC102A, replicate 2
  Counts per million (CPM) WT_HC102A2, gene MT0602: 51.54 CPM
[7]
  Fold change, gene MT1774: 0.07551
  log2 Fold change, gene MT1774: −3.727
Rv1733c, WT Mtb treated with HC102A, replicate 1
  Counts per million (CPM) WT_HC102A1, gene MT1774: 109.6 CPM
Rv1733c, WT Mtb treated with HC102A, replicate 2
  Counts per million (CPM) WT_HC102A2, gene MT1774: 116 CPM
[8]
  Fold change, gene MT1776: 0.2742
  log2 Fold change, gene MT1776: −1.867
Rv1735c, WT Mtb treated with HC102A, replicate 1
  Counts per million (CPM) WT_HC102A1, gene MT1776: 5.202 CPM
Rv1735c, WT Mtb treated with HC102A, replicate 2
  Counts per million (CPM) WT_HC102A2, gene MT1776: 4.163 CPM
[9]
  Fold change, gene MT1778: 0.05545
  log2 Fold change, gene MT1778: −4.173
Rv1736c narX, WT Mtb treated with HC102A, replicate 1
  Counts per million (CPM) WT_HC102A1, gene MT1778: 234.5 CPM
Rv1736c narX, WT Mtb treated with HC102A, replicate 2
  Counts per million (CPM) WT_HC102A2, gene MT1778: 246.1 CPM
[10]
  Fold change, gene MT1779: 0.04997
  log2 Fold change, gene MT1779: −4.323
Rv1737c narK2, WT Mtb treated with HC102A, replicate 1
  Counts per million (CPM) WT_HC102A1, gene MT1779: 72.42 CPM
Rv1737c narK2, WT Mtb treated with HC102A, replicate 2
  Counts per million (CPM) WT_HC102A2, gene MT1779: 91.94 CPM
[11]
  Fold change, gene MT1780: 0.1174
  log2 Fold change, gene MT1780: −3.091
Rv1738, WT Mtb treated with HC102A, replicate 1
  Counts per million (CPM) WT_HC102A1, gene MT1780: 337.8 CPM
Rv1738, WT Mtb treated with HC102A, replicate 2
  Counts per million (CPM) WT_HC102A2, gene MT1780: 628.9 CPM
[12]
  Fold change, gene MT1839: 0.466
  log2 Fold change, gene MT1839: −1.102
Rv1790 PPE, WT Mtb treated with HC102A, replicate 1
  Counts per million (CPM) WT_HC102A1, gene MT1839: 29.83 CPM
Rv1790 PPE, WT Mtb treated with HC102A, replicate 2
  Counts per million (CPM) WT_HC102A2, gene MT1839: 18.94 CPM
[13]
  Fold change, gene MT1860: 0.3171
  log2 Fold change, gene MT1860: −1.657
Rv1812c, WT Mtb treated with HC102A, replicate 1
  Counts per million (CPM) WT_HC102A1, gene MT1860: 54.94 CPM
Rv1812c, WT Mtb treated with HC102A, replicate 2
  Counts per million (CPM) WT_HC102A2, gene MT1860: 65.84 CPM
[14]
  Fold change, gene MT1861: 0.06232
  log2 Fold change, gene MT1861: −4.004
Rv1813c, WT Mtb treated with HC102A, replicate 1
  Counts per million (CPM) WT_HC102A1, gene MT1861: 121.3 CPM
